Data reported in US6777004B1, “Composition containing novel compound corniculatonin having antifungi properties and a process for preparing the same” (Council of Scientific & Industrial Research, priority 2001, dated 2004).

Columns and labels:
[1] = system: Candida sp.; assay: Disk diffusion assay, zone of inhibition; format: cell-based; conditions: 250 μg. disk^−1; incubated at room temperature 42-120 hrs
Text: (§1) Agar: Czapek Malt Agar (Himedia laboratories Ltd.) was used for culturing Microsporumn gypseum, Trichophyton mentagrophytes T. tonsurans, T. violaceum, Aspergillus fresenii and A. niger. Mycological Agar (Himedia Laboratories Ltd) was used for Cryptococcus neoformans and Candida sp.
(§2) Pathogenic fungal strains of yeast and filamentous fungi identified and gifted by Dr. Savio from Goa Medical College, Bambolim, were used for the test. Strains of Aspergillus were isolated from the infected wheat bread with sterile needle; fungal material was surface sterilized using 0.5% sodium hypochlorite for 2-3 minutes, and then washed with small brush in sterile distilled water. Washed fungal material was transferred using needle into the sterile culture media and subcultured for purification by following standard methods (Collins and Taylor, 1967). Taxonomic identification was done by using various standard keys (Ainswort et al., 1973; Onion et al., 1981) and identification confirmed by Alka Pandey of Agarkar Research Institute, Pune.
(§3) Disk diffusion assay: The disk diffusion assay was used for screening of antifungal activity of the compound. The stock solution for the test was prepared by dissolving 5 mg of the compound of formula 1 in 200 μl dimethylsulfoxide (DMSO). From the stock solution 10 μl were spread on the paper disc so as to obtain the final concentration of 250 μg disk^−1 Control disk was applied reconstituted with only dimethylsulphoxide and were dried at 28-29° C. Completely dried disk was applied to innoculated plates. The plates were incubated at room temperature for the period between 42-120 hrs. to obtain maximum growth in the culture media. The zones of inhibition around the disks were measured.

[2] = system: Aspergillus fresenii; assay: Disk diffusion assay, zone of inhibition; format: cell-based; conditions: 250 μg. disk^−1; incubated at room temperature 42-120 hrs
Text: as §1, §2, §3

[3] = system: T. violaceum; assay: Disk diffusion assay, zone of inhibition; format: cell-based; conditions: 250 μg. disk^−1; incubated at room temperature 42-120 hrs
Text: as §1, §2, §3

[4] = system: Microsporum gypseum; assay: Disk diffusion assay, zone of inhibition; format: cell-based; conditions: 250 μg. disk^−1; incubated at room temperature 42-120 hrs
Text: as §1, §2, §3

[5] = system: Trichophyton mentagrophytes; assay: Disk diffusion assay, zone of inhibition; format: cell-based; conditions: 250 μg. disk^−1; incubated at room temperature 42-120 hrs
Text: as §1, §2, §3

[6] = system: Aspergillus niger; assay: Disk diffusion assay, zone of inhibition; format: cell-based; conditions: 250 μg. disk^−1; incubated at room temperature 42-120 hrs
Text: as §1, §2, §3

[7] = system: Cryptococcus neoformans; assay: Disk diffusion assay, zone of inhibition; format: cell-based; conditions: 250 μg. disk^−1; incubated at room temperature 42-120 hrs
Text: as §1, §2, §3

[8] = system: strains of yeast and filamentous fungi; assay: In vitro antifungal activity, disk diffusion, whole panel (summary in words); format: cell-based; conditions: for antifungal activity in words: all the strains of yeast and filamentous fungi tested
Experimental: (§4) Innocula were adjusted to 100 μl of Cryptococcus neoformans, Candida sp., Microsporum gypseum, Trichophyton tonsurans, T. violaceum and Trichophyton mentagrophytes and spread on the appropriate plates, excess moisture was allowed to absorb for 10 minutes before applying disks. Immediately prior to the assay, the testing compound of formula 1, object of the present invention, the reference compounds amphotericin B and nystatin, potency approx:750 μ/mg and 480 USP unit/mg respectively, were reconstituted in triplicate in dimethylsulfoxide. […] From the stock solution 10 μl were spread on the paper disk so as to obtain final concentration of 50 μg disc^−1, 25 μg disc^−1, 12.5 μg disc^−1, 6.25 μg disc^−1 and 3.12 μg disk^−1. Disks were dried at reduced pressure in the dessicator, at 28-29° C. and applied to innoculated plates.
(§5) In testing, the compound of formula 1 was reconstituted in dimethylsulfoxide (DMSO) immediately prior to all assays. Dimethylsulfoxide (DMSO) alone had no detectable inhibitory effect on any of the tested microbes. Compound of formula 1 was tested against a diverse collection of yeast and filamentous fungi, some of which are resistant to the reference compound nystatin. Filamentous fungi were nystatin resistant.

[9] = system: T. tonsurans; assay: Minimum Inhibitory Concentration (MIC), disk diffusion method; format: cell-based, Trichophyton tonsurans; conditions: 3.12-50 μg per disk tested, 42-120 hrs at room temperature
Text: as §1, §2
Innocula were adjusted to 100 μl of Cryptococcus neoformans, Candida sp., Microsporum gypseum, Trichophyton tonsurans, T. violaceum and Trichophyton mentagrophytes and spread on the appropriate plates, excess moisture was allowed to absorb for 10 minutes before applying disks. […]

[10] = system: Candida sp.; assay: as above; format: cell-based; conditions: 3.12-50 μg per disk tested, 42-120 hrs at room temperature
Text: as §1, §2, §4, §5

[11] = system: Aspergillus fresenii; assay: as above; format: cell-based; conditions: 3.12-50 μg per disk tested, 42-120 hrs at room temperature
Text: as §1, §2, §4, §5

[12] = system: T. violaceum; assay: as above; format: cell-based; conditions: 3.12-50 μg per disk tested, 42-120 hrs at room temperature
Text: as §1, §2, §4, §5

[13] = system: Microsporum gypseum; assay: as above; format: cell-based; conditions: 3.12-50 μg per disk tested, 42-120 hrs at room temperature
Text: as §1, §2, §4, §5

[14] = system: Trichophyton mentagrophytes; assay: as above; format: cell-based; conditions: 3.12-50 μg per disk tested, 42-120 hrs at room temperature
Text: as §1, §2, §4, §5

[15] = system: Cryptococcus neoformans; assay: as above; format: cell-based; conditions: 3.12-50 μg per disk tested, 42-120 hrs at room temperature
Text: as §1, §2, §4, §5

[16] = system: T. tonsurans; assay: Disk diffusion assay, zone of inhibition; format: cell-based, Trichophyton tonsurans; conditions: 250 μg. disk^−1; incubated at room temperature 42-120 hrs
Text: as §1, §2
Disk diffusion assay: The disk diffusion assay was used for screening of antifungal activity of the compound. The stock solution for the test was prepared by dissolving 5 mg of the compound of formula 1 in 200 μl dimethylsulfoxide (DMSO). […] The zones of inhibition around the disks were measured.

[17] = system: Aspergillus niger; assay: Minimum Inhibitory Concentration (MIC), disk diffusion method; format: cell-based; conditions: 3.12-50 μg per disk tested, 42-120 hrs at room temperature
Text: as §1, §2, §4, §5

[18] = system: Cladosporium cucumerinum; conditions: plant pathogenic fungus Cladosporium cucumerinum; cited from earlier work

Row | Compound | Disk Diffusion Method, zone of inhibition [1] | Disk Diffusion Method, zone of inhibition [2] | Disk Diffusion Method, zone of inhibition [3] | Disk Diffusion Method, zone of inhibition [4] | Disk Diffusion Method, zone of inhibition [5] | Disk Diffusion Method, zone of inhibition [6] | Disk Diffusion Method, zone of inhibition [7] | antifungal activity in words [8] | MIC [9] | MIC [10] | MIC [11] | MIC [12] | MIC [13] | MIC [14] | MIC [15] | Disk Diffusion Method, zone of inhibition [16] | MIC [17] | sensitivity of filamentous fungi in words ([8]; filamentous fungi) | antifungal amount in TLC bioassay [18]
1 | 3-O-α-rhamnopyranosyl-rhamnopyranosyl-glucopyranosyl-glucoronopyranosylgluco-pyrano side 16 α-hydroxy-13,28-epoxy oleanane [Compound 1] | 9 mm | 10 mm | 13 mm | 14 mm | 12 mm | 4 mm | 9 mm | fungicidal against all the strains of yeast and filamentous fungi tested except Aspergillus niger | 12.5-25 μg. disk^−1 | 6.25-12.5 μg. disk^−1 | 25-50 μg. disk^−1 | 25-50 μg. disk^−1 | 12.5-25 μg. disk^−1 | 25-50 μg. disk^−1 | 6.25-12.5 μg. disk^−1 | 14 mm |  |  | 
2 | C[C@@H]1[C@H](O)[C@@H](C)/C=C/C=C/C=C/C=C/C=C/C=C/C=C/[C@H](O[C@@H]2O[C@H](C)[C@@H](O)[C@H](N)[C@@H]2O)C[C@@H]2O[C@](O)(C[C@@H](O)C[C@@H](O)[C@H](O)CC[C@@H](O)C[C@@H](O)CC(=O)O[C@H]1C)C[C@H](O)[C@H]2C(=O)O [Amphotericin B, reference compound] |  |  |  |  |  |  |  | sensitive | 6.25-12.5 μg. disk^−1 | 3.12-6.25 μg. disk^−1 | 12.5-25 μg. disk^−1 | 6.25-12.5 μg. disk^−1 | 6.25-12.5 μg. disk^−1 | 6.25-12.5 μg. disk^−1 | 3.12-6.25 μg. disk^−1 |  | 12.5-25 μg. disk^−1 |  | 
3 | C[C@@H]1[C@H](O)[C@@H](C)/C=C/C=C/CC/C=C/C=C/C=C/C=C/C(O[C@H]2O[C@H](C)[C@@H](O)[C@H](N)[C@@H]2O)CC2O[C@](O)(CC(O)C(O)CCC(O)CC(O)CC(O)CC(=O)O[C@H]1C)CC(O)C2C(=O)O (some centres unmarked) [Nystatin] |  |  |  |  |  |  |  |  |  | 6.25-12.5 μg. disk^−1 |  |  |  |  | 6.25-12.5 μg. disk^−1 |  |  | resistant | 
4 | Sakurasaponin |  |  |  |  |  |  |  |  |  |  |  |  |  |  |  |  |  |  | 1 µg
